Earlier results as cited in PMC10797624, “Multitracer Approach to Understanding the Complexity of Reactive Astrogliosis in Alzheimer’s Brains” (ACS Chemical Neuroscience, 2023).

Key:
MAO-B = test system: MAO-B; parameters: method as in PMID 32646880; conditions: small brain section autoradiography
[1] = test system: [^3H]-BU99008 binding sites; parameters: method as in PMID 33888872; conditions: L-deprenyl vs [^3H]-BU99008

SMILES | displacement of [^18F]-SMBT-1 binding (MAO-B) | binding sites and affinities vs [^3H]-BU99008 [1]
NCCNC(=O)c1ccc(Cl)cn1 [lazabemide] | fully displaced | –
C#CCN(C)[C@H](C)Cc1ccccc1 [L-deprenyl] | – | multiple binding sites with pico- and micromolar affinities
